This note sets out measurements from patent US4440904A, “Nonapeptide anti-secretory agents” (American Home Products Corporation, priority 1983, dated 1984).

Bridge positions count the residues as written; N and C are the ends. Square brackets hold non-standard residues; d marks the D form. Peptide text beside a SMILES is read from it.

Experiment [1] relates to growth hormone (GH). The experiment can be described thus: Growth hormone suppression in arginine-stimulated, Nembutal-anesthetized rats (GH by radioimmunoassay). It counts as in vivo, rat. The conditions noted are these: for GH: albino male rats, time 15 minutes, arginine stimulation, saline control 90 ± 14, *p <0.01. The protocol: The product of the preceding example illustrates the activity of the compounds of this invention for growth hormone suppression in the following standard procedure:
Albino male rats are administered Nembutal intraperitoneally at a dose of 50 milligrams per kilogram. Fifteen minutes later a subcutaneous injection of the compound of Example 2 or physiological saline (control) is administered. Ten minutes later 0.5 milliliters of arginine (300 milligrams per milliliter, pH 7.2) is injected into the heart. Five minutes after receipt of the arginine the rats are decapitated and blood is collected into trasylol-EDTA. An appropriate aliquot is assayed for growth hormone (GH) by radioimmunoassay.

The test system of experiment [2] is total acid output. The experiment can be described thus: Gastric anti-secretory activity in pylorus-ligated rats. It counts as in vivo, rat. The conditions noted are these: male Sprague-Dawley rats, pyloric ligation, 2 milligram per kilogram subcutaneous, four-hour test period. The protocol:
Male Charles River rats of Sprague-Dawley strain and 190 to 240 grams body weight are food deprived for 24 hours with water ad libitum until the test. Groups of ten rats each are assigned to either control or drug treatment. Pyloric ligation was performed under ether anesthesia through a midline laparotomy, and either control vehicle (0.25 methylcellulose) or drug in control vehicle was administered subcutaneously. The rats are sacrificed by CO2 asphyxiation four hours after pyloric ligation. The stomachs are removed and the gastric contents emptied into graduated centrifuge tubes. The gastric samples are centrifuged for 20 minutes and those obviously contaminated by food, blood or feces are discarded. The volume of gastric fluid is recorded and the acid concentration of 1.0 milliliter sample aliquots is measured by electrometric titration to pH 7.0 with 0.1 N NaOH. The calculated product of gastric volume (ml/4 hr) and acid concentration (mEq/L) estimates the total acid output (TAO, mEq/4 hr) over the four-hour test period.

`C[C@@H](O)[C@@H]1NC(=O)[C@H](CCCCN)NC(=O)[C@@H](Cc2c[nH]c3ccccc23)NC(=O)[C@H](Cc2ccccc2)NC(=O)[C@@H](NC(=O)[C@H](Cc2ccc(O)cc2)NC(=O)[C@@H](N)Cc2c[nH]cn2)CSSC[C@@H](C(=O)N[C@@H](Cc2ccccc2)C(=O)O)NC1=O` [Example 2, L-Histidyl-L-tyrosyl-L-cysteinyl-L-phenylalanyl-D-tryptophyl-L-lysyl-L-threonyl-L-cysteinyl-L-phenylalanine cyclic (3-8) disulfide] (H-HYCF[dW]KTCF-OH; disulfide 3-8): the GH in experiment [1] (dose 200 μg/kg subcutaneous) amounted to 31 ± 10 ng/mL; in experiment [1] (dose 1,000 μg/kg subcutaneous), 41 ± 8 ng/mL. In addition, the “growth hormone suppression potency compared with somatostatin” value in experiment [1] (rats, subcutaneous) is “substantially equipotent with somatostatin”. Besides, in experiment [2], the “decrease of total acid output” value was found to be 73%.
In turn, `C[C@H](N)C(=O)NCC(=O)N[C@H]1CSSC[C@@H](C(=O)O)NC(=O)[C@H](CO)NC(=O)[C@H]([C@@H](C)O)NC(=O)[C@H](Cc2ccccc2)NC(=O)[C@H]([C@@H](C)O)NC(=O)[C@H](CCCCN)NC(=O)[C@H](Cc2c[nH]c3ccccc23)NC(=O)[C@H](Cc2ccccc2)NC(=O)[C@H](Cc2ccccc2)NC(=O)[C@H](CC(N)=O)NC(=O)[C@H](CCCCN)NC1=O` [Somatostatin, reference compound] had a GH in experiment [1] (dose 200 μg/kg subcutaneous) of 34 ± 3 ng/mL.
